{"source": "patent US11707464B2", "about": "“Methods of treating heavy menstrual bleeding” (AbbVie Inc., priority 2013, dated 2023)", "format_in_all_cases": "in vivo, human", "key": {"[1]": {"test_system": "premenopausal women with uterine fibroids and heavy menstrual bleeding", "test": "Phase 2a uterine fibroid trial: fibroid volume and uterine volume", "conditions": "for percent of subjects who achieved a ≥25% reduction in uterine volume: placebo 9%; for percent of subjects who achieved a ≥25% reduction in fibroid volume: placebo 29%", "from_the_text": "In another embodiment, the present invention relates to methods for reducing the fibroid volume in a subject with uterine fibroids. In one aspect, the methods of the present invention can be used to reduce the fibroid volume by greater than or equal to at least about 25%. In another aspect, the methods of the present invention can be used to reduce the fibroid volume in a subject with uterine fibroids. More specifically, the methods of the present invention can be used to reduce the fibroid volume in a subject with uterine fibroids by volume by greater than or equal to at least about 25%. In another aspect, the methods of the present invention are used to reduce the fibroid volume in a subject with uterine fibroids prior to hysterectomy, myomectomy, or uterine artery embolization. Methods for measuring fibroid volume are known in the art and include ultrasound and/or MRI.\nIn another embodiment, the present invention relates to methods for reducing the total uterine volume in a subject with uterine fibroids. The “total uterine volume” is the volume of the entire uterus. In one aspect, the methods of the present invention can be used to reduce the total uterine volume by greater than or equal to at least about 25%. In another aspect, the methods of the present invention can be used to reduce the total uterine volume in a subject with uterine fibroids. More specifically, the methods of the present invention can be used to reduce the total uterine volume in a subject with uterine fibroids by greater than or equal to at least about 25%. Methods for measuring total uterine volume are known in the art and include, ultrasound and/or MRI.\nThis example is a Phase 2a, multicenter, double-blind, placebo-controlled, randomized trial (N=280) with a 3-month treatment duration evaluating the safety and efficacy of Elagolix administered with or without Activella® in premenopausal women with uterine fibroids.\nIt evaluates the safety and efficacy of […] of Elagolix (100 mg BID, 200 mg BID, 200 mg BID plus low dose Activella® (a combination of 0.5 mg estradiol and 0.1 mg northindrone acetate), 300 mg BID, 300 mg BID plus 1.0 mg of Estrace and 200 mg cyclical Prometrium (collectively referred to as “EP”), 400 mg QD and 600 QD) versus placebo (PBO) to reduce uterine bleeding associated with uterine fibroids and to reduce fibroid volume and uterine volume in premenopausal women 20 to 49 years of age with heavy menstrual bleeding (HMB; >80 mL blood loss per menstrual cycle). The study involved the following six (6) cohorts:\nThere are a number of efficacy endpoints, but a composite endpoint consisting of two bleeding assessments was used to assess one measure of efficacy. It included the percent of subjects who achieved a menstrual blood loss (MBL) volume of <80 mL at the Final Month (last 28 days of treatment), and also achieved a ≥50% reduction in MBL volume from baseline to the Final Month (last 28 days of treatment) as measured by the Alkaline Hematin (AH) method. Eighty-five percent (85%), 97%, and 30% of subjects achieved the composite bleeding assessment endpoint in the 200 mg BID, 300 mg BID, and placebo groups, respectively (P<0.05 for 200 mg BID versus placebo in cohort 1, and 300 mg BID versus placebo in cohort 2). […]"}, "[2]": {"test_system": "premenopausal women with endometriosis", "test": "Phase 2 endometriosis studies: uterine bleeding by daily eDiary", "conditions": "for days of bleeding per month: eDiary", "procedure": "The effects of elagolix on uterine bleeding were evaluated in the Phase 2 endometriosis program, with an analysis of the percentage of days of bleeding per month according to daily reporting of bleeding in an electronic diary (eDiary)."}, "[3]": {"test_system": "premenopausal women with endometriosis", "test": "Phase 2 endometriosis studies: endometriosis-associated pain efficacy", "procedure": "Six Phase 2 randomized, double-blind, placebo-, and/or active-controlled, parallel-group, multiple dose studies were completed to evaluate elagolix as a treatment for endometriosis associated pain. Efficacy was assessed for dysmenorrhea (DYS), nonmenstrual pelvic pain (NMPP), dyspareunia, and general pelvic pain with a range of instruments.\nAdditional efficacy assessments included quality of life and the use of analgesics for control of endometriosis pain.\nAcross these Phase 2 studies, the enrollment criteria were similar and were intended to select premenopausal women aged 18 to 49 years of age with endometriosis confirmed by visual inspection (laparoscopy or laparotomy within 5 to 8 years of screening) who experienced moderate to severe endometriosis-associated pain. Women were included if they had regular menstrual cycles and no significant uterine fibroids or pelvic lesions.\nTotal daily doses of elagolix ranging from 75 to 250 mg were evaluated across a range of pain instruments measuring DYS, NMPP, or general pelvic pain (including patient global impression of change), during 12 or 24 weeks of treatment."}, "[4]": {"test_system": "women with endometriosis", "test": "Phase 2 endometriosis studies: safety and tolerability", "from_the_text": "The safety and tolerability of elagolix in women with endometriosis has been evaluated in 6 completed Phase 2 studies including 708 women who received at least 1 dose of elagolix. Overall, 475 women have received elagolix for at least 12 weeks and 278 women for a period of at least 24 weeks. The majority of women were Caucasian (78.9% to 100%), while approximately 7% were black and approximately 4.5% were Hispanic. The mean age across these six Phase 2 studies was 31 to 33 years (range 18 to 48 years) and mean body mass index (BMI) of 23 to 28 kg/m. Overall, 40% to 70% of women had received prior therapy for the treatment of endometriosis, and hormonal contraceptives were the most common class of drug prescribed for the condition. In addition, the majority were receiving analgesic medications (nonsteroidal anti-inflammatory drugs, opioids, and/or other) prior to study enrollment.\nNone of these events were serious and they contributed to less than 1% of study discontinuations."}}, "data": [{"smiles": "COc1cccc(-c2c(C)n(Cc3c(F)cccc3C(F)(F)F)c(=O)n(C[C@H](NCCCC(=O)O)c3ccccc3)c2=O)c1F", "note": "[Elagolix, 4-((R)-2-[5-(2-fluoro-3-methoxy-phenyl)-3-(2-fluoro-6-trifluoromethyl-benzyl)-4-methyl-2,6-dioxo-3,6-dihydro-2H-pyrimidin-1-yl]-1-phenyl-ethylamino)-butyric acid]", "values": [{"measurement": "percent of subjects who achieved a ≥25% reduction in uterine volume", "setting": "[1]; 200 mg BID", "result": 50, "unit": "%"}, {"measurement": "percent of subjects who achieved a ≥25% reduction in fibroid volume", "setting": "[1]; 200 mg BID", "result": 63, "unit": "%"}, {"measurement": "percent of subjects who achieved a ≥25% reduction in uterine volume", "setting": "[1]; 300 mg BID", "result": 68, "unit": "%"}, {"measurement": "percent of subjects who achieved a ≥25% reduction in fibroid volume", "setting": "[1]; 300 mg BID", "result": 55, "unit": "%"}, {"measurement": "uterine and fibroid volumes (FIG. 4)", "setting": "[1]; 300 mg BID, within 3 months", "result": "strongest effects"}, {"measurement": "days of bleeding per month", "setting": "[2]; 250 mg QD compared with 150 mg QD", "result": "fewer days of bleeding"}, {"measurement": "bleeding intensity and intervals between bleeding episodes", "setting": "[2]; majority of elagolix recipients, individual menstrual charts from eDiary", "result": "reduced bleeding intensity and often had extended intervals between bleeding episodes"}, {"measurement": "days of bleeding per month", "setting": "[2]; overall, compared with placebo", "result": "fewer days of bleeding per month"}, {"measurement": "quality of life assessments", "setting": "[3]; Phase 2 endometriosis studies", "result": "improved quality of life assessments"}, {"measurement": "symptoms of dyspareunia", "setting": "[3]; Phase 2 endometriosis studies", "result": "reduced"}, {"measurement": "effect on DYS and NMPP compared with DMPA-SC", "setting": "[3]; daily dose of 150 mg", "result": "comparable effect"}, {"measurement": "effect on DYS and NMPP compared with leuprorelin", "setting": "[3]; daily doses of 150 mg and 250 mg", "result": "less effect"}, {"measurement": "endometriosis-associated pain", "setting": "[3]; daily doses of 100 to 250 mg, 12 or 24 weeks", "result": "clinically meaningful reductions"}, {"measurement": "overall usage of analgesics for pain control", "setting": "[3]; elagolix treatment arms", "result": "decreased"}, {"measurement": "most common adverse events", "setting": "[4]; 12-week and 24-week analysis sets, incidence similar to DMPA-SC in 24-week analysis", "result": "headache and nausea"}, {"measurement": "safety and tolerability", "setting": "[4]; all daily doses (100 to 250 mg) evaluated", "result": "safe and well tolerated"}, {"measurement": "incidence of AEs that led to discontinuations", "setting": "[4]; completed Phase 2 endometriosis studies", "result": 4.8, "unit": "%"}, {"measurement": "study discontinuations contributed by headache and nausea", "setting": "[4]; none of these events serious", "result": "less than 1%"}]}]}
